Measured values as given in ChEMBL document CHEMBL3286395, “Tabercarpamines A-J, apoptosis-inducing indole alkaloids from the leaves of Tabernaemontana corymbosa” (J Nat Prod, 2014).

Experiments:
HepG2 [1] = assay: Cytotoxicity against human HepG2 cells assessed as decrease in cell viability after 48 hrs by MTT assay; format: functional, cell-based; conditions: HepG2, 48 h
HepG2 [2] = assay: Induction of apoptosis in human HepG2 cells assessed as early stage apoptotic cells at 6.25 uM after 48 hrs using annexin V-FITC/propidium iodide staining by flow cytometry (reference value: 10.15%); format: functional
HepG2 [3] = assay: Induction of apoptosis in human HepG2 cells assessed as late stage apoptotic cells at 25 uM after 48 hrs using annexin V-FITC/propidium iodide staining by flow cytometry (reference value: 0.65%); format: functional
SMMC-7721 = assay: Cytotoxicity against human SMMC7721 cells assessed as decrease in cell viability after 48 hrs by MTT assay; format: functional, cell-based; conditions: SMMC-7721, 48 h
HepG2 [4] = assay: Induction of apoptosis in human HepG2 cells assessed as viable cells at 12.50 uM after 48 hrs using annexin V-FITC/propidium iodide staining by flow cytometry (reference value: 86.80%); format: functional; conditions: HepG2, 48 h, read-out: Activity
HepG2 [5] = assay: Induction of apoptosis in human HepG2 cells assessed as viable cells at 25 uM after 48 hrs using annexin V-FITC/propidium iodide staining by flow cytometry (reference value: 86.80%); format: functional; conditions: HepG2, 48 h, read-out: Activity
HepG2 [6] = assay: Induction of apoptosis in human HepG2 cells assessed as necrotic cells at 6.25 uM after 48 hrs using annexin V-FITC/propidium iodide staining by flow cytometry (reference value: 2.39%); format: functional
HepG2 [7] = assay: Induction of apoptosis in human HepG2 cells assessed as early stage apoptotic cells at 25 uM after 48 hrs using annexin V-FITC/propidium iodide staining by flow cytometry (reference value: 10.15%); format: functional
HepG2 [8] = assay: Induction of apoptosis in human HepG2 cells assessed as apoptotic rate at 25 uM after 48 hrs using annexin V-FITC/propidium iodide staining by flow cytometry (reference value: 10.80%); format: functional
MCF7 = assay: Cytotoxicity against human MCF7 cells assessed as decrease in cell viability after 48 hrs by MTT assay; format: functional, cell-based; conditions: MCF7, 48 h
HepG2 [9] = assay: Induction of apoptosis in human HepG2 cells assessed as necrotic cells at 25 uM after 48 hrs using annexin V-FITC/propidium iodide staining by flow cytometry (reference value: 2.39%); format: functional
HepG2 [10] = assay: Induction of apoptosis in human HepG2 cells assessed as early stage apoptotic cells at 12.50 uM after 48 hrs using annexin V-FITC/propidium iodide staining by flow cytometry (reference value: 10.15%); format: functional
HepG2 [11] = assay: Induction of apoptosis in human HepG2 cells assessed as necrotic cells at 12.50 uM after 48 hrs using annexin V-FITC/propidium iodide staining by flow cytometry (reference value: 2.39%); format: functional
HepG2 [12] = assay: Induction of apoptosis in human HepG2 cells assessed as viable cells at 6.25 uM after 48 hrs using annexin V-FITC/propidium iodide staining by flow cytometry (reference value: 86.80%); format: functional; conditions: HepG2, 48 h, read-out: Activity
HepG2 [13] = assay: Induction of apoptosis in human HepG2 cells assessed as late stage apoptotic cells at 12.50 uM after 48 hrs using annexin V-FITC/propidium iodide staining by flow cytometry (reference value: 0.65%); format: functional
HepG2 [14] = assay: Induction of apoptosis in human HepG2 cells assessed as apoptotic rate at 12.50 uM after 48 hrs using annexin V-FITC/propidium iodide staining by flow cytometry (reference value: 10.80%); format: functional
HepG2 [15] = assay: Induction of apoptosis in human HepG2 cells assessed as apoptotic rate at 6.25 uM after 48 hrs using annexin V-FITC/propidium iodide staining by flow cytometry (reference value: 10.80%); format: functional
HepG2 [16] = assay: Induction of apoptosis in human HepG2 cells assessed as late stage apoptotic cells at 6.25 uM after 48 hrs using annexin V-FITC/propidium iodide staining by flow cytometry (reference value: 0.65%); format: functional

Structure (SMILES)	IC50 (HepG2 [1])	IC50 (SMMC-7721)	IC50 (MCF7)	further results
C/C=C1/CN(C)[C@H]2Cc3c([nH]c4ccccc34)[C@H](c3cc4c5c6n(c4cc3OC)C[C@H]3C[C@@H](CC)[C@@H](NCC5)[C@@]6(C(=O)OC)C3)C[C@H]1[C@]2(CO)C(=O)OC	3.31 µM	6.76 µM	8.54 µM	Activity (HepG2 [2]): 10.19%; Activity (HepG2 [3]): 30.97%; viability at 12.5 µM (HepG2 [4]): 72.4%; viability at 25 µM (HepG2 [5]): 33.9%; Activity (HepG2 [6]): 3.17%; Activity (HepG2 [7]): 19.54%; Activity (HepG2 [8]): 50.51%; Activity (HepG2 [9]): 15.59%; Activity (HepG2 [10]): 11.3%; Activity (HepG2 [11]): 7.85%; viability at 6.25 µM (HepG2 [12]): 85%; Activity (HepG2 [13]): 8.47%; Activity (HepG2 [14]): 19.77%; Activity (HepG2 [15]): 11.82%; Activity (HepG2 [16]): 1.63%
C/C=C1/CN(C)[C@H]2Cc3c([nH]c4ccccc34)[C@H](c3cc4c(cc3OC)c3c5n4C[C@H]4C[C@@H](CC)[C@@H](NCC3)[C@@]5(C(=O)OC)C4)C[C@H]1[C@]2(CO)C(=O)OC	11.3 µM	15 µM	11 µM	
CC[C@]1(C(=O)O)C[C@@H](C(=O)OC)C2=Nc3cc(OC)ccc3[C@@]23CCN(CCO)[C@@H]13	> 100 µM	> 100 µM	> 100 µM	
CC[C@]1(C(=O)O)C[C@@H](C(=O)OC)C2=Nc3cc(OC)ccc3[C@@]23CCN(CCO)[C@H]13	> 100 µM	> 100 µM	> 100 µM	
CC[C@@]12C[C@@H](C(=O)OC)C3=Nc4cc(OC)ccc4[C@@]34CCN(CCOC1=O)[C@@H]24	> 100 µM	> 100 µM	> 100 µM	
CC[C@@]12C[C@@H](C(=O)OC)C3=Nc4cc(OC)ccc4[C@@]34CCN(CCOC1=O)[C@H]24	> 100 µM	> 100 µM	> 100 µM	
CC[C@H]1C[C@@H]2Cn3c4c(c5ccc(OC)cc53)CCN[C@H]1[C@@]4(C(=O)OC)C2	> 100 µM	> 100 µM	> 100 µM	
COC(=O)[C@@]12C[C@@H]3C[C@H]([C@H](C)O)[C@H]1NCCc1c2n(c2cc(OC)ccc12)C3	> 100 µM	> 100 µM	> 100 µM	
CC[C@H]1C[C@H]2C[C@@]3(C(=O)OC)c4c(c5ccc(OC)cc5n4C2=O)CCN[C@H]13	> 100 µM	> 100 µM	> 100 µM	
COC(=O)[C@@]12C[C@@H]3C[C@H]([C@H](C)O)[C@H]1NCCc1c2n(c2ccccc12)C3	> 100 µM	> 100 µM	> 100 µM	
C/C=C1/CN(C)[C@H]2Cc3c([nH]c4ccccc34)[C@H](c3c(OC)ccc4c5c([nH]c34)[C@@]3(C(=O)OC)C[C@H]4C[C@H](CC)[C@@H]3N(CC5)C4)C[C@H]1[C@]2(CO)C(=O)OC	13.1 µM	12.6 µM	14.6 µM	
C/C=C1/CN(C)[C@H]2Cc3c([nH]c4ccccc34)[C@H](c3cc4c5c([nH]c4cc3OC)[C@@]3(C(=O)OC)C[C@H]4C[C@H](CC)[C@H]3N(CC5)C4)C[C@H]1[C@]2(CO)C(=O)OC	12.8 µM	4.63 µM	38 µM	
